“Also recorded” adds a separate entry of the source. Read-outs that look alike come from different tables or passages of the source.
Experiments:
MCF-7/Adr cells [1] = assay: Inhibition of growth of multidrug-resistant MCF-7/Adr cells, without or with reserpine; assay type: cell-based, human; conditions: for IC50: 4 days incubation, without reserpine; for Ratio (-reserpine / +reserpine): IC50 in MCF-7/Adr in the absence of reserpine over IC50 in its presence; for Ratio (MCF-7/Adr / MCF-7), resistance ratio: IC50 in MCF-7/Adr over IC50 in MCF-7; as to MDR reversal by reserpine (Table III summary): key: +: potent effect; (+): weak effect; -: no effect; as to Resistance in MCF-7/Adr cells (Table III summary): key: +: potent effect; (+): weak effect; -: no effect
MCF-7/Adr cells [2] = assay: Flow cytometric analysis of R123 accumulation and efflux; assay type: cell-based, human; conditions: for Increase over control levels in R123 accumulation: 20 min together with R123; for Effect on R123 accumulation or efflux: 640 nM; as to Effect on R123 efflux (Table III summary): key: +: potent effect; (+): weak effect; -: no effect
Excerpt: (§1) In the present study these five compounds are compared as modifiers of P-gp-mediated MDR. […] The overall objective of the work was to explore the mechanisms of cytostasis and resistance reversal caused by kinase inhibitors in a MDR cell line, with the ultimate aim to assess the potential use of such compounds in cancer therapy. […] [3H]Vinblastine (11 or 21 Ci mmol -') was obtained from Amersham (Amersham, UK). […] Cell culture medium and serum were purchased from Gibco BRL (Paisley, UK). Stock solutions of drugs were prepared in dimethyl sulphoxide (DMSO) and stored at -20?C. […] Cultures of both cell types contained L-glutamine (2 mM), penicillin (100 IU ml-') and streptomy- cin (100 ug ml-1). Cells were subcultured when they were confluent. […] After a 4 h attachment period compounds at various concentrations were added. […] Cells were trypsinised and counted using a model ZM Coulter counter. Incubations were conducted in duplicate. Growth inhibition was expressed as percentage of cell number in drug-free control incubates. […] IC50 values were derived from three separate experiments each performed in duplicate. The resistance ratios shown in Table I are the ratios of IC50 in MCF-7/Adr over IC50 in MCF-7, or IC50 in MCF-7/Adr in the absence of reserpine over IC50 in its presence. Flow cytometric analysis of R123 accumulation and efflux Cells were maintained in medium without phenol red but with FCS (10%) and gentamicin (50 µg ml-'). […] Cells were detached by treatment with trypsin-EDTA, washed with ice-cold PBS and resuspended in PBS (1 ml), to which propidium iodide (10 Mg) was added. […] Single- and multi-parameter data of forward angle scatter, side scatter, R123 fluorescence and propidium iodide fluorescence were collected for 104 cells. Fluorescence was measured on a four-decade log scale. The data were analysed using Lysis 2 software. Only R123 fluorescence of viable, propidium iodide-excluding cells was analysed. [/II] Vinblastine accumndation ini cells MCF-7 and MCF-7jAdr cells were grown to confluency in 12-well plates. […] The experiment was started by addition of [3H]vinblastine (1 -2 nM) to the incubate. […] Cells were incubated at 37'C for I h, after which the medium was aspirated and replaced with scintillant (1 ml). […] For each membrane preparation 109 cells were homogenised in 40 ml ice-cold Tris buffer [Tris-HC1 50 mM, phenylmethylsulphonyl fluoride (PMSF) 0.1 mM, pH 7.4] to which 0.1 mM EDTA had been added. The homogenate was centrifuged at 3500 g for 10 min; the supernatant was recentrifuged at 40 000 g for 20 min, the resultant pellet was resuspended in Tris buffer (10 ml). […] Filters were washed twice with 5 ml of ice-cold Tris-HCI containing magnesium chloride (both 20 mM). Assays were performed in duplicate. Filters were dried and retained radioactivity was quantitated by liquid scintillation counting.

PKC = conditions: cited from earlier work; for PKC inhibition, potency (Table III summary) / IC50: ref Courage et al., 1995; for IC50: read-out: IC50 for enzyme inhibition, PKC derived from the cytosol of MCF-7 cells
P-gp = P-gp (Homo sapiens, UniProt P08183); assay: Inhibition of binding of [3H]vinblastine to P-gp in MCF-7/Adr membranes
P-gp, sequence (P08183 whole entry): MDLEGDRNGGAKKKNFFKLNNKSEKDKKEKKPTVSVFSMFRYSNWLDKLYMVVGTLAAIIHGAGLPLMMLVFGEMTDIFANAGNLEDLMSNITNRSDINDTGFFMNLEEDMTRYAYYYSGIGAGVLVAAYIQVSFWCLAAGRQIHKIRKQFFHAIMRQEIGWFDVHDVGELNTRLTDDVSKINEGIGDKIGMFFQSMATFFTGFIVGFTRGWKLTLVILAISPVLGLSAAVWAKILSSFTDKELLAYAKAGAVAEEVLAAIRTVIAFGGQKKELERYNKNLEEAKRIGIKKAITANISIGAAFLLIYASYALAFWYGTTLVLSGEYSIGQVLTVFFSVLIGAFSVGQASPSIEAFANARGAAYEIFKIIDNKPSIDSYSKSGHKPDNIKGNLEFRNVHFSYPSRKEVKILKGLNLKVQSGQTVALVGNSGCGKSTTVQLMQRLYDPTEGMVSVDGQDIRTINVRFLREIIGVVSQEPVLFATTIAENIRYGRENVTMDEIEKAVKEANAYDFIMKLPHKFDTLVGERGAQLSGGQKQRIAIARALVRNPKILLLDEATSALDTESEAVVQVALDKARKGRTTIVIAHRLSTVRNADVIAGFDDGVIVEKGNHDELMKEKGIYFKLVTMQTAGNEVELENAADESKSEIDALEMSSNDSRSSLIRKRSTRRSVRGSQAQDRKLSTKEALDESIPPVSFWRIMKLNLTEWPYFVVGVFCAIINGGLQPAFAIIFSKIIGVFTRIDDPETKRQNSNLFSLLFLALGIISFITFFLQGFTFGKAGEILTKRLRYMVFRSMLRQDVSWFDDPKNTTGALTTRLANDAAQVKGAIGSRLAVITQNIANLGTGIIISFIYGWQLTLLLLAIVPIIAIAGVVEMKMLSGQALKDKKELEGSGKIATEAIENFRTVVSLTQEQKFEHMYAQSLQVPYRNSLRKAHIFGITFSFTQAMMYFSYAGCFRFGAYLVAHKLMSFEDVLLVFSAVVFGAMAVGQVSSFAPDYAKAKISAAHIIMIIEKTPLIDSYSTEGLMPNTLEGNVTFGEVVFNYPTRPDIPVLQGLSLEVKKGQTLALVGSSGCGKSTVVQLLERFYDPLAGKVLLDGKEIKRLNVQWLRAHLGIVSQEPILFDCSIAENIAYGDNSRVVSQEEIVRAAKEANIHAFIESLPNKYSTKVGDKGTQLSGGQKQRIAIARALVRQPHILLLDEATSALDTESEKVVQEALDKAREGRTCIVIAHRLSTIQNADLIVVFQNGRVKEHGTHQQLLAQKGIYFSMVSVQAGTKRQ
Excerpt: as §1

MCF-7/Adr cells [3] = assay: [3H]Vinblastine accumulation in MCF-7/Adr cells; assay type: cell-based, human; conditions: 300 nM, 1 h, 37 C; control cells 1280 d.p.m.
Excerpt: as §1, with “were” for “were washed twice with 5 ml of ice-cold Tris-HCI containing magnesium chloride (both 20 mM). Assays were performed in duplicate. Filters were”

MCF-7 cells = assay: Inhibition of growth of MCF-7 wild-type cells (4 days, Coulter count); assay type: cell-based, human; conditions: for IC50: 4 days incubation, mean of three experiments, read-out: IC50 MCF-7 (concentration which caused inhibition of cell growth by 50%)
Excerpt: as §1, with “were” for “were washed twice with 5 ml of ice-cold Tris-HCI containing magnesium chloride (both 20 mM). Assays were performed in duplicate. Filters were”

MCF-7/Adr cells [4] = assay: Sensitisation of MCF-7/Adr cells against doxorubicin (preliminary study); assay type: cell-based, human; conditions: unpublished preliminary study
[5] = read-out: Ki, inhibition of binding of [3H]vinblastine to P-gp, MCF-7/Adr membranes, 90 min, 23 C, mean, s.e.m.
[6] = Homo sapiens, NCI/ADR-RES, 96 h
For PKC inhibition, potency (Table III summary) in this document: key: +: potent effect; (+): weak effect; -: no effect.
For PKC inhibition, specificity (Table III summary) in this document: key: +: potent effect; (+): weak effect; -: no effect.

SMILES | IC50 (MCF-7/Adr cells [1]) | Ratio (-reserpine / +reserpine) (MCF-7/Adr cells [1]) | Ratio (MCF-7/Adr / MCF-7), resistance ratio (MCF-7/Adr cells [1]) | Effect on R123 efflux (Table III summary) (MCF-7/Adr cells [2]) | PKC inhibition, specificity (Table III summary) (PKC) | PKC inhibition, potency (Table III summary) (PKC) | Inhibition of [3H]vinblastine binding (Table III summary) (P-gp) | Ki (P-gp; [5]) | [3H]Vinblastine accumulation (MCF-7/Adr cells [3]) | IC50 (MCF-7 cells) | further results
CN[C@@H]1C[C@H]2O[C@@](C)([C@@H]1OC)n1c3ccccc3c3c4c(c5c6ccccc6n2c5c31)C(=O)N[C@H]4O [UCN-01, 7-hydroxystaurosporine] | 123 nM | 3.5 | 7.0 | (+) | + | + | (+) | 293 nM | 2110 d.p.m. | 17.5 nM | MDR reversal by reserpine (Table III summary) (MCF-7/Adr cells [1]): +; Resistance in MCF-7/Adr cells (Table III summary) (MCF-7/Adr cells [1]): +; Concentration with significant effect on R123 accumulation (MCF-7/Adr cells [2]; tested 10-640 nM): 80 nM; Concentration with significant effect on dye efflux (MCF-7/Adr cells [2]; tested 10-640 nM): 320 nM
COc1cccc2c1C(=O)c1c(O)c3c(c(O)c1C2=O)C[C@@](O)(C(=O)CO)C[C@@H]3O[C@H]1C[C@H](N)[C@H](O)[C@H](C)O1 [doxorubicin] |  | 16 |  |  |  |  |  |  |  |  | IC50 (MCF-7/Adr cells [1]; [6]): 1600 nM
COC(=O)[C@H]1[C@H]2C[C@@H]3c4[nH]c5cc(OC)ccc5c4CCN3C[C@H]2C[C@@H](OC(=O)c2cc(OC)c(OC)c(OC)c2)[C@@H]1OC [reserpine] |  |  |  |  |  |  |  |  |  |  | Effect on proliferation (MCF-7/Adr cells [1]; reserpine 5 μM): did not interfere with proliferation; Increase of sensitivity towards doxorubicin (MCF-7/Adr cells [1]; reserpine 5 μM, preliminary experiments): 14.3 fold
CN[C@@H]1C[C@H]2O[C@@](C)([C@@H]1OC)n1c3ccccc3c3c4c(c5c6ccccc6n2c5c31)C(=O)NC4 [staurosporine] |  |  |  | + |  |  | (+) |  |  |  | IC50 (MCF-7/Adr cells [1]; [6]): 6.5 nM; Increase over control levels in R123 accumulation (MCF-7/Adr cells [2]; 80 nM): 40%; Increase over control levels in R123 retention (efflux) (MCF-7/Adr cells [2]; 20 min, 0.08 µM): 75%; IC50 (PKC): 16 nM; Ki (P-gp): 145 nM
CO[C@@H]1[C@H](N(C)C(=O)c2ccccc2)C[C@H]2O[C@]1(C)n1c3ccccc3c3c4c(c5c6ccccc6n2c5c31)C(=O)NC4 [CGP 41251, 4'-N-benzoyl staurosporine] |  |  |  | + |  |  | + |  | 3200 d.p.m. |  | Increase over control levels in R123 retention (efflux) (MCF-7/Adr cells [2]; 80 nM, 20 min after loading with and removal of the dye): 150%; Increase over control levels in R123 accumulation (MCF-7/Adr cells [2]; 80 nM): 47%; Ki (P-gp): 32 nM; Increase of sensitivity of cells towards doxorubicin (factor) (MCF-7/Adr cells [4]; 80 nM): 2
CN(C)CCCn1cc(C2=C(c3c[nH]c4ccccc34)C(=O)NC2=O)c2ccccc21 [GF 109203X] | 8800 nM | 1.5 | 1.2 |  | + | + |  | 780 nM | 1790 d.p.m. | 7300 nM | Effect on R123 accumulation or efflux (MCF-7/Adr cells [2]): inactive; also recorded: did not alter
Cn1cc(C2=C(c3cn(CCCSC(=N)N)c4ccccc34)C(=O)NC2=O)c2ccccc21 [RO 31 8220] | 11300 nM | 6.4 | 12.6 |  | + | + | (+) | 210 nM | no effect | 897 nM | MDR reversal by reserpine (Table III summary) (MCF-7/Adr cells [1]): +; Resistance in MCF-7/Adr cells (Table III summary) (MCF-7/Adr cells [1]): +; Effect on R123 accumulation or efflux (MCF-7/Adr cells [2]): inactive; also recorded: did not alter; IC50 (PKC): 48 nM; Effect on sensitivity of cells towards doxorubicin (MCF-7/Adr cells [4]; 2 μM): no effect; Effect of reserpine on sensitivity of wild-type MCF-7 cells (MCF-7 cells; result not shown): did not affect

Source: PMC2074394 (British Journal of Cancer, 1996)
